The subject of assay [1] is pulmonary arterial pressure. Kind of assay: Pulmonary Arterial Pressure Lowering Action in anesthetized dogs. Type of assay: in vivo, adult mongrel dogs. The following applies: anesthetized dogs. As to the method: (§1) Adult mongrel dogs were anesthetized by intramuscular administration of 20 mg/kg of ketamine and intravenous administration of 20 mL/kg of physiological saline containing 5 mg/mL of α-chloralose; under artificial respiration, the aortic pressure was measured with a catheter inserted into the femoral artery and the pulmonary arterial pressure with a Swan-Ganz catheter inserted into the pulmonary artery. Anesthesia was maintained by intravenous administration of physiological saline containing 5 mg/mL of α-chloralose at a rate of 5 mL/kg per hour. Comparison was made between nitroglycerin, nifedipine and test compounds which were administered intravenously at doses of 0.01-1 mg/kg. Each test compound was dissolved in dimethylformamide (DMF) and sequentially diluted with polyethylene glycol 200 and water to give respective proportions of 20, 50 and 30% (v/v) and administrated by injection into the right femoral vein in a volume of 0.3 mL/kg. The results are shown in Table 2 below, in which maximal percent decreases in the pulmonary arterial pressure and aortic pressure are listed to show the effectiveness of each test compound in lowering the pulmonary arterial pressure and the systemic blood pressure, respectively.

The test system of another assay is systemic blood pressure. Kind of assay: Systemic blood (aortic) pressure lowering in anesthetized dogs. In kind it is in vivo, adult mongrel dogs. The procedure:
as §1

The target of a further assay is T1, PDE type III (Canis lupus familiaris, UniProt A0A8I3NYE0).
T1 construct: PDE was purified from the aorta in a dog; from tissue; host or cells: dog aorta
T1 sequence (A0A8I3NYE0 1-1135): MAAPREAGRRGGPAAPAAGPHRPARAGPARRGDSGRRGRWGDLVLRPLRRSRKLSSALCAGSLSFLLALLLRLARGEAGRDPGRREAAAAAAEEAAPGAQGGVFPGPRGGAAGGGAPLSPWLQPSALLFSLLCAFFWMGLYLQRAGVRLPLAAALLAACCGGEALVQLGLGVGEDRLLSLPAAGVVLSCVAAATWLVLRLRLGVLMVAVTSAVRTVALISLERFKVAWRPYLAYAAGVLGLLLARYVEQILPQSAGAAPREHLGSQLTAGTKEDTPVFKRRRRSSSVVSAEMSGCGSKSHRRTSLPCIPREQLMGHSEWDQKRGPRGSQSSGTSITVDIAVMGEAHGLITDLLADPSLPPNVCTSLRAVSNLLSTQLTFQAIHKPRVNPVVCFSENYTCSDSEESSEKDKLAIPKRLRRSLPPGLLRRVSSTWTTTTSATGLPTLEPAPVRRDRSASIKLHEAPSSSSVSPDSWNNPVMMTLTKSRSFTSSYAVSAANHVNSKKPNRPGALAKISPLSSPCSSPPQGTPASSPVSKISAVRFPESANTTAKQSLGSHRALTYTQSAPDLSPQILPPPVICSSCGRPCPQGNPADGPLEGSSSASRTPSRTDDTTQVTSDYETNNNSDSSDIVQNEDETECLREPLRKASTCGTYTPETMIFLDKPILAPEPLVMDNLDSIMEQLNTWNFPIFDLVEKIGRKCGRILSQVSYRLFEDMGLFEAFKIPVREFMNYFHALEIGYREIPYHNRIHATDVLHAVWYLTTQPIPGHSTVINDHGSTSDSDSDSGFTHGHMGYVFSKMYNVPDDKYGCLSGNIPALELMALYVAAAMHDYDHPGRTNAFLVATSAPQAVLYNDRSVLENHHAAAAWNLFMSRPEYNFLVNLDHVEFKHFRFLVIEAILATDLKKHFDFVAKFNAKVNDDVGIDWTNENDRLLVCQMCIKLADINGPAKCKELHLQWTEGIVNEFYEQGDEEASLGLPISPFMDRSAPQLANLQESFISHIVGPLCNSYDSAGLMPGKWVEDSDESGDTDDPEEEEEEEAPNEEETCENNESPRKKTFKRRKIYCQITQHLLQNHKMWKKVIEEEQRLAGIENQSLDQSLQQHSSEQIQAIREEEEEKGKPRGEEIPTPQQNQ
Kind of assay: PDE Inhibiting Activity, type III. Type of assay: biochemical, dog (canine aorta). The following applies: PDE type III from canine aorta, 1 μM substrate, pH 7.5; read-out: Inhibition Activity IC50, Type III. As to the method: (§2) On the basis of the method of Lugnier et al. (Biochem. Pharmacol., 35, 1743-1751, 1986), PDE was purified from the aorta in a dog. The canine aorta was minced and homogenized with a Waring Blender and a glass homogenizer in six volumes of a Tris-HCl buffer solution (pH 7.5, 20 mM) containing 2 mM magnesium acetate, 5 mM ethylenediaminetetraacetic acid (EDTA), 100 μg/mL of phenylmethylsulforyl fluoride and 15 mM 2-mercaptoethanol (2-ME), and centrifuged at 1200 xg for 30 min. The supernatant was separated and salted out with ammonium sulfate which was added to 45% saturation. The resulting precipitated fraction was resuspended in a Tris-HCl buffer solution (pH 7.5, 20 mM) containing 2 mM magnesium acetate and 1 mM 2-ME, dialyzed overnight and applied to a DEAE-trisacryl column (DEAE […] M:IBF). By elution with a sodium chloride gradient (0-0.4 M), PDE types V and III were separated from the other isozymes. The supernatant fraction of 45% saturated ammonium sulfate was further mixed with ammonium sulfate to 65% saturation and salted out. The resulting precipitated fraction was similarly applied to the DEAE-trisacryl column and eluted by a sodium chloride gradient (0-0.4 M) so as to separate PDE type I.
(§3) The thus obtained PDE types V, III and I were measured for their activity in accordance with the method of Thompson et al. (Adv. Cyclic Nucleotide Res., 10, 69-72, 1979) and the method of Wells et al. (Biochim. Biophys. Acta, 384, 430-443, 1975). Specifically, a purified PDE sample was added to 50 mM Tris-HCl buffer solution (pH 7.5) containing 1 μM of substrate cGMP or cAMP (containing tritium-labelled cGMP or cAMP), 1 mM EGTA and 2 mM magnesium acetate. For PDE activity measurement, enzymatically produced 5' GMP or 5' AMP was further hydrolyzed into guanosine or adenosine with snake venom and separated from the substrate by means of an ion-exchange resin (Dowex 1-X2), followed by measuring with a scintillation counter. The activity of each test compound was determined as a percentage of the DPE activity measured when it was added as a dimethyl sulfoxide solution (DMSO) and its IC50 (50% inhibition concentration) was calculated by the probit method. The final concentration of DMSO was adjusted to be no more than 2% in consideration of the effect on PDE activity.

The next assay deals with PDE type I. Kind of assay: PDE Inhibiting Activity, type I. The note with it: PDE type I from canine aorta, 1 μM substrate, pH 7.5; read-out: Inhibition Activity IC50, Type I. Type of assay: biochemical, dog (canine aorta). The procedure:
as §2, §3

The mark [2] stands for this setting: Canis lupus familiaris, iv, 0.3 mg/kg intravenous, maximal percent decrease, read-out: Reduction in pulmonary arterial pressure.
Setting [3] is: Canis lupus familiaris, iv, 0.3 mg/kg intravenous, anesthetized dogs, maximal percent decrease, read-out: Reduction in systemic blood pressure.

For orientation: IC50 means the concentration at which inhibition is half-maximal. `CC(C)(C)OC(=O)COc1cc2c(=O)c(Cc3cccnc3)cn3c4ccc(Br)cc4c(c1)c23` [Example 3, 10-bromo-2-t-butoxycarbonylmethyloxy-5-(3-pyridylmethyl)-4H-pyrido [3,2,1-jk]carbazole-4-one]: the values for the inhibition in vivo at 0.3 mg/kg (in assay [1] (setting [2]); in the assay on systemic blood pressure (setting [3])) were 19% and 12%, respectively. Also, the IC50 at PDE type III and in the assay on PDE type I was more than 30 µM throughout.

Consider `Cc1cn2c3ccc(Br)cc3c3cc(OCC(=O)OC(C)(C)C)cc(c1=O)c32` [Example 50, 10-bromo-2-t-butoxycarbonylmethyloxy-5-methyl-4H-pyrido [3,2,1-jk]carbazole-4-one], for which the results for the inhibition in vivo at 0.3 mg/kg (in assay [1] (setting [2]); in the assay with systemic blood pressure (setting [3])) were 33% and 13%, respectively. The IC50 on PDE type III and in the assay on PDE type I was more than 30 µM throughout.

On to `CC(C)(C)OC(=O)COc1cc2c(=O)ccn3c4ccc(Br)cc4c(c1)c23` [Example 60, 10-bromo-2-t-butoxycarbonylmethyloxy-4H-pyrido [3,2,1-jk]carbazole-4-one], for which the inhibition in vivo at 0.3 mg/kg stood at 20% in assay [1] (setting [2]) and 8% in the assay with systemic blood pressure (setting [3]). Moreover, the IC50 at PDE type III was 15 µM; in the assay on PDE type I it was more than 30 µM.

Regarding `O=c1c(Cc2cccnc2)cn2c3cc(Br)ccc3c3cc(O)cc1c32` [Example 102, 9-bromo-2-hydroxy-5-(3-pyridylmethyl)-4H-pyrido [3,2,1-jk]carbazole-4-one], the results for the inhibition in vivo at 0.3 mg/kg (in assay [1] (setting [2]); with systemic blood pressure (setting [3])) were 24% and 19%, respectively. The results for the IC50 on PDE type III and with PDE type I were 9.3 µM and more than 30 µM, respectively.

Take `O=c1c(Cc2cccnc2)cn2c3cc(Br)ccc3c3cc(OCc4cccnc4)cc1c32` [Example 105, 9-bromo-5-(3-pyridylmethyl)-2-(3-pyridylmethyloxy)-4H-pyrido [3,2,1-jk]carbazole-4-one]: the inhibition in vivo at 0.1 mg/kg in assay [1] (Canis lupus familiaris, iv, 0.1 mg/kg intravenous, maximal percent decrease, read-out: Reduction in pulmonary arterial pressure) is 16%; in the assay on systemic blood pressure (Canis lupus familiaris, iv, 0.1 mg/kg intravenous, anesthetized dogs, maximal percent decrease, read-out: Reduction in systemic blood pressure), 12%. Also, the results for the IC50 on PDE type III and with PDE type I were 2.4 µM and more than 30 µM, respectively.

For the compound `COc1cc2c(=O)c(Cc3ccccc3)cn3c4cc(Br)ccc4c(c1)c23` [Example 121, 5-benzyl-9-bromo-2-methoxy-4H-pyrido [3,2,1-jk]carbazole-4-one], the IC50 at PDE type III and in the assay on PDE type I was more than 30 µM throughout.

Turning to `O=c1c(Cc2ccccc2)cn2c3cc(Br)ccc3c3cc(O)cc1c32` [Example 122, 5-benzyl-9-bromo-2-hydroxy-4H-pyrido [3,2,1-jk]carbazole-4-one], the IC50 at PDE type III was 13 µM; with PDE type I, more than 30 µM.

Consider `CC(=O)Oc1cc2c(=O)c(Cc3cccnc3)cn3c4ccccc4c(c1)c23` [Example 156], for which the half-inhibitory concentration (IC50) at PDE type III was 5.6 µM; with PDE type I it was more than 30 µM.

For the compound `CC(=O)Oc1ccc2c3cccc4c(=O)c(Cc5cccnc5)cn(c2c1)c43` [Example 226], the IC50 was 12 µM at PDE type III and more than 30 µM in the assay on PDE type I.

In the case of `CCOC(=O)COc1cc2c(=O)c(Cc3cccnc3)cn3c4ccc(Cl)cc4c(c1)c23` [Example 245], the IC50 at PDE type III is 3.9 µM; in the assay on PDE type I it was more than 30 µM.

With `Cc1cc2c(=O)ccn3c4ccc(Br)cc4c(c1)c23` [Example 277], the IC50 on PDE type III and in the assay on PDE type I was more than 30 µM each time.

As to `CS(=O)(=O)O.O=c1c(Cc2cccnc2)cn2c3cc(Br)ccc3c3cc(OCCCO)cc1c32` [Example 279, 9-bromo-2-(3-hydroxypropyloxy)-5-(3-pyridylmethyl)-4H-pyrido[3,2,1-jk]carbazole-4-one methanesulfonate], the “Reduction in pulmonary arterial pressure” value in assay [1] (0.3 mg/kg intravenous, maximal percent decrease) worked out at 17%. Besides, in the assay with systemic blood pressure (0.3 mg/kg intravenous, anesthetized dogs, maximal percent decrease), the “Reduction in systemic blood pressure” value turned out to be 4%.

With `O=c1c(Cc2cccnc2)cn2c3cc(Cl)ccc3c3cc(OCCCO)cc1c32` [Example 283, 9-chloro-2-(3-hydroxypropyloxy)-5-(3-pyridylmethyl)-4H-pyrido[3,2,1-jk]carbazole-4-one], the results for the IC50 on PDE type III and in the assay on PDE type I were 3.6 µM and more than 30 µM, respectively.

On to `O=c1c(Cc2cccnc2)cn2c3cc(Cl)ccc3c3cc(OCCCO)cc1c32` [Example 285, 9-chloro-2-(3-hydroxypropyloxy)-5-(3-pyridylmethyl)-4H-pyrido[3,2,1-jk]carbazole-4-one methanesulfonate], for which the values for the inhibition in vivo at 0.3 mg/kg (in assay [1] (setting [2]); in the assay on systemic blood pressure (setting [3])) were 16% and 2%, respectively.

Consider `O=c1c(Cc2cccnc2)cn2c3cc(C(F)(F)F)ccc3c3cc(OCCCO)cc1c32` [Example 289, 2-(3-hydroxypropyloxy)-5-(3-pyridylmethyl)-9-trifluoromethyl-4H-pyrido[3,2,1-jk]carbazole-4-one], for which the IC50 on PDE type III is 2.5 µM; with PDE type I, more than 30 µM.

With `O=c1c(Cc2cccnc2)cn2c3cc(C(F)(F)F)ccc3c3cc(OCCCO)cc1c32` [Example 291, 2-(3-hydroxypropyloxy)-5-(3-pyridylmethyl)-9-trifluoromethyl-4H-pyrido[3,2,1-jk]carbazole-4-one methanesulfonate], the inhibition in vivo at 0.3 mg/kg in assay [1] (setting [2]) was determined as 13%; in the assay on systemic blood pressure (setting [3]) it was 4%.

With `COC(=O)C1=C(C)NC(C)=C(C(=O)OC)C1c1ccccc1[N+](=O)[O-]` [Nifedipine, nifedipine, reference compound], the inhibition in vivo at 0.01 mg/kg in assay [1] (Canis lupus familiaris, iv, 0.01 mg/kg intravenous, maximal percent decrease, read-out: Reduction in pulmonary arterial pressure) came to 3%; in the assay with systemic blood pressure (Canis lupus familiaris, iv, read-out: Reduction in systemic blood pressure), 18%. In addition, the “pulmonary arterial versus systemic blood pressure lowering (in words)” value in assay [1] (intravenous) is “lowered the systemic blood pressure by greater degrees than the pulmonary arterial pressure”.

The values are drawn from US6197768A, “Pyridocarbazole derivatives having cgmp-pde inhibitory activity” (Mochida Pharmaceutical Co., Ltd., priority 1996, dated 2001).
